pEC50: −log10 of the molar value.
Assays:
S1P1 [1] = molecular target: T1, S1P1 (Homo sapiens, UniProt P21453); assay: Tango β-arrestin Recruitment Assay in HEK293 cells (Assay 2a); type: cell-based; set-up: linker with TEV protease (N1a) cleavage site (C); host or cells: HEK293, transiently transfected
Description: For the Tango™ β-arrestin recruitment assay, the cytoplasmic C-terminus of S1P1 is tethered to the tTA transcriptional activator with a linker that contains a cleavage site for the N1a protease from tobacco etch virus (TEV protease). The C-terminus of the human β-arrestin2 protein is fused to TEV protease. Binding of an agonist recruits the β-arrestin-TEV fusion protein to the receptor resulting in cleavage of the linker and release of tTA to enter the nucleus and subsequently activate a tTA-dependent luciferase reporter gene.
Frozen HEK293 cells transiently transfected with receptor cDNAs for S1P1 (Invitrogen) were thawed and suspended in 10 mL of Pro293a-CDM culture medium (Invitrogen) supplemented with 4 mM L-Glutamine (Invitrogen), 1× Pen/Strep (100 units/mL penicillin and 100 μg/mL streptomycin, Invitrogen) and 0.1% fatty acid free BSA (Sigma-Aldrich). Cells were added to the wells of a 384-well white opaque bottom assay plate (PerkinElmer) at 3,000-6,000 cells per well and the plate was incubated for approximately 4 h in a 37° C. incubator. Test compounds were tested at maximum concentrations of 10 μM for the agonist assays. Compounds were diluted in DMSO (10 concentration points, 3-fold each) and added to the assay plate at a 1% final DMSO concentration. For each compound, there were duplicate assay plates and each assay plate had duplicate wells per concentration point. The plate was incubated at 37° C. for 30 min. The efficacy control was 5 μM S1P (Avanti). Following agonist addition, the assay plates were incubated in a 37° C. incubator for 16-18 h. Luciferase assay reagent was added and luminescence measured in an EnVision plate reader (PerkinElmer). To determine agonist activity, percent activity was calculated as [(test compound−background)/(positive control−background)* 100], where background is the luminescence of the DMSO alone control and the positive control is the luminescence from cells incubated with the efficacy control 5 μM S1P. The percent activities were plotted against compound concentration to determine EC50 using XLFit (IDBS).
Assay 1 is the CNG cAMP Assay as described in Biological Example 1. Assay 2a and 2b are the Tango™ β-arrestin Recruitment Assay in HEK293 and U2OS cells, respectively, as described in Biological Example 2. Assay 3a is the hS1P1R GTPγS Binding Assay as described in Biological Example 3. Assay 3b is the GTP-Eu Binding Assay as described in Biological Example 3. EC50's were measured unless otherwise noted. […] In the table, “nt” means the Compound was not tested and “no” means the compound was tested but had no measurable activity under the assay conditions employed.
Target sequence in this assay (P21453 whole entry, the tested form may be a part): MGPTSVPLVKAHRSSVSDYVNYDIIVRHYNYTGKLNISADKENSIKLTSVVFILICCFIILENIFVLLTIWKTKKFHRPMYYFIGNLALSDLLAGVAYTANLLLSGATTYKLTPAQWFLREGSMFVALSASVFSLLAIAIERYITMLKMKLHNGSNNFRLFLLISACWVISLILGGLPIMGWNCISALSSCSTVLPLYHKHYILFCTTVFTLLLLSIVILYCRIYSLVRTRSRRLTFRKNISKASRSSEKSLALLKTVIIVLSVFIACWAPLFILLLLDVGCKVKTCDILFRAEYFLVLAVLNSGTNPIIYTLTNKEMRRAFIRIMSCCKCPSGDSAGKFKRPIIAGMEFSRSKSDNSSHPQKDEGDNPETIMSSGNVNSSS
Target sequence in this assay (P32121 whole entry partner, the tested form may be a part): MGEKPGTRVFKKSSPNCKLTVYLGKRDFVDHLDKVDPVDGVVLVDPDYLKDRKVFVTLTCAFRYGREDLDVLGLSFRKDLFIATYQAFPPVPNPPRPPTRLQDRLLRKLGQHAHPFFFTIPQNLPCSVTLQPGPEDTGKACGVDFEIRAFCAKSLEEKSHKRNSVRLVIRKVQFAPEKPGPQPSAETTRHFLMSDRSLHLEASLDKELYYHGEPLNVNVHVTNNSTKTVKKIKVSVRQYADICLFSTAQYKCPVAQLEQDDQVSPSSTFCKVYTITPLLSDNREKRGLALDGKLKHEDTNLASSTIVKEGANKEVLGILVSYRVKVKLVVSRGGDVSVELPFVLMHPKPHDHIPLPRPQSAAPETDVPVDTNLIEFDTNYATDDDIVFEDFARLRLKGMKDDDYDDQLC

S1P1 [2] = molecular target: T1, S1P1; assay: CNG cAMP Assay (Assay 1); type: cell-based; set-up: host or cells: HEK293 cells expressing the CNG channel
Outline: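 HEK293 cells expressing CNG channel and S1P1, membrane-potential dye loaded; compounds (top 10 μM, 10-point 3-fold, 1.8% DMSO) added with 25 μM Ro 20-1724, 500 nM NECA and 10 nM S1P for 90 min. T90/T0 fluorescence (Ex 350/Em 590 nm) normalised to NECA-alone vs DMSO; EC50 fitted.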
Target sequence in this assay (P21453 whole entry, the tested form may be a part): as the sequence (P21453 whole entry, the tested form may be a part) above

[3] = Tango β-arrestin Recruitment Assay, read-out: Assay 2a EC50
[4] = Tango β-arrestin, footnote 1: Relative EC50 was measured, read-out: Assay 2a Relative EC50

Structure (SMILES)	pEC50 (S1P1 [1]; [3])	pEC50 (S1P1 [2]; read-out: Assay 1 EC50)	also measured
O=C(O)C(O)COc1cc(Cl)c(-c2noc(-c3cn4cc(C(F)(F)F)cc(Cl)c4n3)n2)cc1Cl (stereo not shown) [Entry 58]	≥ 7.00		
CC(Cc1cc(Cl)c(-c2nc(-c3cn4cc(C(F)(F)F)cc(Cl)c4n3)no2)cc1Cl)C(=O)O (stereo not shown) [Example 241, 3-(2,5-dichloro-4-{3-[8-chloro-6-(trifluoromethyl)imidazo[1,2-a]pyridin-2-yl]-1,2,4-oxadiazol-5-yl}phenyl)-2-methylpropanoic acid]	≥ 7.00		
CS(=O)(=O)Cc1ccc(-c2noc(-c3cn4cc(C(F)(F)F)cc(Cl)c4n3)n2)c(Cl)c1 [Example 275, 8-chloro-2-(3-{2-chloro-4-[(methylsulfonyl)methyl]phenyl}-1,2,4-oxadiazol-5-yl)-6-(trifluoromethyl)imidazo[1,2-a]pyridine]	6.30 to 7.00	≥ 7.00	
NCC(O)COc1cc(Cl)c(-c2noc(-c3cn4cc(C(F)(F)F)cc(Cl)c4n3)n2)cc1F (stereo not shown) [Example 216, 1-amino-3-[(5-chloro-4-{5-[8-chloro-6-(trifluoromethyl)imidazo[1,2-a]pyridin-2-yl]-1,2,4-oxadiazol-3-yl}-2-fluorophenyl)oxy]propan-2-ol]	≥ 7.00	≥ 7.00	
O=C(O)CCc1cc(Cl)c(-c2noc(-c3cn4cc(Br)cc(Br)c4n3)n2)cc1F [Entry 71]	≥ 7.00		
CC(=O)OCCOc1c(Cl)cc(-c2noc(-c3cn4cc(C(F)(F)F)cc(Cl)c4n3)n2)cc1Cl [Example 279, 2-[(2,6-dichloro-4-{5-[8-chloro-6-(trifluoromethyl)imidazo[1,2-a]pyridin-2-yl]-1,2,4-oxadiazol-3-yl}phenyl)oxy]ethyl acetate]	6.30 to 7.00		
N#Cc1cc(Br)c2nc(-c3nc(-c4cc(F)c(CCC(=O)O)cc4Cl)no3)cn2c1 [Entry 47]	6.30 to 7.00	≥ 7.00	
Cc1ccc(Oc2cc(Cl)c3nc(-c4nc(-c5cc(F)c(CCC(=O)O)cc5Cl)no4)cn3c2)cc1 [Entry 67]	≥ 7.00		
CC(Cc1cc(Cl)c(-c2noc(-c3cn4cc(C(F)(F)F)cc(Br)c4n3)n2)cc1Cl)C(=O)O (stereo not shown) [Example 225, 3-(4-{5-[8-bromo-6-(trifluoromethyl)imidazo[1,2-a]pyridin-2-yl]-1,2,4-oxadiazol-3-yl}-2,5-dichlorophenyl)-2-methylpropanoic acid]			pEC50 (S1P1 [1]; [4]): 6.30 to 7.00
Fc1cccc(F)c1-c1noc(-c2cn3cc(C(F)(F)F)cc(Cl)c3n2)n1 [Example 141, 8-chloro-2-[3-(2,6-difluorophenyl)-1,2,4-oxadiazol-5-yl]-6-(trifluoromethyl)imidazo[1,2-a]pyridine]	6.30 to 7.00	6.00 to 6.30	
Cc1cc(C#N)c2nc(-c3nc(-c4cc(F)c(CCC(=O)O)cc4Cl)no3)cn2c1 [Example 160, 3-{5-chloro-4-[5-(8-cyano-6-methylimidazo[1,2-a]pyridin-2-yl)-1,2,4-oxadiazol-3-yl]-2-fluorophenyl}propanoic acid]	6.30 to 7.00	≥ 7.00	
O=C(O)CCc1cc(Cl)c(-c2nnc(-c3cn4cc(C(F)(F)F)cc(Cl)c4n3)o2)cc1F [Example 282, 3-(5-chloro-4-{5-[8-chloro-6-(trifluoromethyl)imidazo[1,2-a]pyridin-2-yl]-1,3,4-oxadiazol-2-yl}-2-fluorophenyl)propanoic acid]	≥ 7.00	≥ 7.00	
O=C(O)CCc1ccc(-c2noc(-c3cn4cc(C(F)(F)F)cc(Cl)c4n3)n2)c(F)c1 [Entry 19]	6.30 to 7.00	≥ 7.00	
O=C(O)CCc1cc(Cl)c(-c2noc(-c3cn4cc(Br)cc(Cl)c4n3)n2)cc1F [Entry 64]	≥ 7.00	≥ 7.00	
OCCNc1ccc(-c2noc(-c3cn4cc(C(F)(F)F)cc(Cl)c4n3)n2)c(Cl)c1 [Example 115, 2-[(3-chloro-4-{5-[8-chloro-6-(trifluoromethyl)imidazo[1,2-a]pyridin-2-yl]-1,2,4-oxadiazol-3-yl}phenyl)amino]ethanol]	≥ 7.00		
OCCOc1c(Cl)cc(-c2noc(-c3cn4cc(C(F)(F)F)cc(Cl)c4n3)n2)cc1Cl [Example 280, 2-[(2,6-dichloro-4-{5-[8-chloro-6-(trifluoromethyl)imidazo[1,2-a]pyridin-2-yl]-1,2,4-oxadiazol-3-yl}phenyl)oxy]ethanol]	≥ 7.00		
CC(Cc1cc(Cl)c(-c2noc(-c3cn4cc(C(F)(F)F)cc(Cl)c4n3)n2)cc1Cl)C(=O)O (stereo not shown) [Example 190, 3-(2,5-dichloro-4-{5-[8-chloro-6-(trifluoromethyl)imidazo[1,2-a]pyridin-2-yl]-1,2,4-oxadiazol-3-yl}phenyl)-2-methylpropanoic acid]			pEC50 (S1P1 [1]; [4]): 6.30 to 7.00
OCCNCc1cc(Cl)c(-c2noc(-c3cn4cc(C(F)(F)F)cc(Cl)c4n3)n2)cc1Cl [Example 138, 2-{[(2,5-dichloro-4-{5-[8-chloro-6-(trifluoromethyl)imidazo[1,2-a]pyridin-2-yl]-1,2,4-oxadiazol-3-yl}phenyl)methyl]amino}ethanol]			pEC50 (S1P1 [1]; [4]): 6.30 to 7.00
COCCOc1cc(Cl)c(-c2noc(-c3cn4cc(C(F)(F)F)cc(Cl)c4n3)n2)cc1Cl [Entry 76]	≥ 7.00		
OC(CF)COc1cc(Cl)c(-c2noc(-c3cn4cc(C(F)(F)F)cc(Br)c4n3)n2)cc1Cl (stereo not shown) [Example 110, 1-[(4-{5-[8-bromo-6-(trifluoromethyl)imidazo[1,2-a]pyridin-2-yl]-1,2,4-oxadiazol-3-yl}-2,5-dichlorophenyl)oxy]-3-fluoropropan-2-ol]	≥ 7.00		
CC(O)COc1c(Cl)cc(-c2noc(-c3cn4cc(C(F)(F)F)cc(Cl)c4n3)n2)cc1Cl (stereo not shown) [Example 104, 1-[(2,6-dichloro-4-{5-[8-chloro-6-(trifluoromethyl)imidazo[1,2-a]pyridin-2-yl]-1,2,4-oxadiazol-3-yl}phenyl)oxy]propan-2-ol]	≥ 7.00		
FC(F)(F)c1cc(Cl)c2nc(-c3nc(-c4ccc5[nH]cnc5c4)no3)cn2c1 [Example 164, 5-{5-[8-chloro-6-(trifluoromethyl)imidazo[1,2-a]pyridin-2-yl]-1,2,4-oxadiazol-3-yl}-1H-benzimidazole]		6.30 to 7.00	
O=C(O)C1CC1c1ccc(-c2noc(-c3cn4cc(C(F)(F)F)cc(Cl)c4n3)n2)cc1F (stereo not shown) [Example 78, 2-(4-{5-[8-chloro-6-(trifluoromethyl)imidazo[1,2-a]pyridin-2-yl]-1,2,4-oxadiazol-3-yl}-2-fluorophenyl)cyclopropanecarboxylic acid]		6.30 to 7.00	
CS(=O)(=O)Nc1cc(Cl)c2nc(-c3nc(-c4cc(F)c(CCC(=O)O)cc4Cl)no3)cn2c1 [Entry 59]			pEC50 (S1P1 [2]; relative EC50 was measured (footnote 1), read-out: Assay 1 Relative EC50): 5.30 to 6.00
O=C(O)CCc1cc(F)c(-c2noc(-c3cn4cc(C(F)(F)F)cc(Cl)c4n3)n2)cc1F [Entry 60]		≥ 7.00	
Oc1cc(Cl)c(-c2noc(-c3cn4cc(C(F)(F)F)cc(Cl)c4n3)n2)cc1F [Example 260, 5-chloro-4-{5-[8-chloro-6-(trifluoromethyl)imidazo[1,2-a]pyridin-2-yl]-1,2,4-oxadiazol-3-yl}-2-fluorophenol]		≥ 7.00	
O=C(O)C1CN(Cc2cccc(-c3noc(-c4cn5cc(C(F)(F)F)cc(Cl)c5n4)n3)c2)C1 [Example 121, 1-[(3-{5-[8-chloro-6-(trifluoromethyl)imidazo[1,2-a]pyridin-2-yl]-1,2,4-oxadiazol-3-yl}phenyl)methyl]azetidine-3-carboxylic acid]		6.00 to 6.30	
CS(=O)(=O)Nc1ccc(-c2noc(-c3cn4cc(C(F)(F)F)cc(Cl)c4n3)n2)cc1Cl [Example 122, N-(2-chloro-4-{5-[8-chloro-6-(trifluoromethyl)imidazo[1,2-a]pyridin-2-yl]-1,2,4-oxadiazol-3-yl}phenyl)methanesulfonamide]		≥ 7.00	
OCCN1CCC(Oc2ccc(-c3noc(-c4cn5cc(C(F)(F)F)cc(Cl)c5n4)n3)c(Cl)c2)C1 (stereo not shown) [Example 210, 2-{3-[(3-chloro-4-{5-[8-chloro-6-(trifluoromethyl)imidazo[1,2-a]pyridin-2-yl]-1,2,4-oxadiazol-3-yl}phenyl)oxy]pyrrolidin-1-yl}ethanol]			pEC50 (S1P1 [2]; footnote 1: Relative EC50 was measured, read-out: Assay 1 Relative EC50): 5.30 to 6.00
